Consider three molecules from US20080318775A1, “Safening of pesticides with cyclopropenes” (priority 2007, published 2008).

Data set [1] relates to GLYPHOSATE-resistant soybeans. As to the kind of experiment: Plant height of soybeans sprayed with 0.5% GLYPHOSATE with or without 1-MCP.
Data set [2] relates to GLYPHOSATE-resistant soybeans. As to the kind of experiment: Plant height of soybeans sprayed with 2% GLYPHOSATE with or without 1-MCP.
The subject of data set [3] is GLYPHOSATE-resistant soybeans. The conditions noted are these: in vivo.
Data set [4] deals with GLYPHOSATE-resistant soybeans. The following applies: in vivo. This is another data set of the same source.
Data set [5] has as its system GLYPHOSATE-resistant soybeans. Put plainly: Plant height of soybeans sprayed with 0.05% PHYSAN 20 fungicide/antimicrobial agent with or without 1-MCP. Format: in vivo. The conditions noted are these: 10 ppm 1-MCP with 0.05% PHYSAN 20; plant height after 21 days.

Read-outs that look alike come from different tables or passages of the source.

For `O=C(O)CNCP(=O)(O)O` [GLYPHOSATE, reference compound], the “Plant Height” value in data set [1] (greenhouse, sprayed to run off at second true leaves, 0.5% GLYPHOSATE, 10 ppm 1-MCP (as α-cyclodextrin complex), adjuvant 0.1% Quillaja Saponin, 21 days after spray, untreated control 126) was 112.1; in data set [2] (greenhouse, sprayed to run off at second true leaves, 2% GLYPHOSATE, 10 ppm 1-MCP (as α-cyclodextrin complex), adjuvant 0.1% Quillaja Saponin, 21 days after spray, untreated control 126) it was 112.9.

On to `CNC(=O)Oc1cccc2ccccc12` [CARBARYL, reference compound], for which, in data set [3], the “Plant Height” value turned out to be 112.8.

Regarding `CC1=CC1` [1-MCP, 1-methylcyclopropene], the “Effect on growth reduction caused by the herbicide (in words)” value in data set [1] (10 ppm 1-MCP with 0.5% GLYPHOSATE, plant height after 21 days) was “able to prevent the growth reduction caused by the herbicide”. Besides, the “Effect on the negative effect of the fertilizer on plant growth (in words)” value in data set [4] is listed as “able to alleviate some of that effect”. Also, in data set [2] (10 ppm 1-MCP with 2% GLYPHOSATE, with or without 0.1% Quillaja Saponin adjuvant, plant height after 21 days), the “Effect on plant height / effect of the herbicide (in words)” value was “improved the height”. The “Effect compared to the fungicide-treated plants (in words)” value in data set [5] is reported as “positive effect”. The “Effect on setback caused by the insecticide (in words)” value in data set [3] is reported as “able to mediate some of the setback caused by the insecticide”.
